Here are results for 18 compounds from US20220227700A1, “HDAC3 CATALYTIC INHIBITOR DEVELOPMENT AND USES THEREOF” (DANA-FARBER CANCER INSTITUTE, INC., priority 2019, published 2022).

Holding throughout (format): biochemical
Experiment [1] has as its target T1, HDAC3 (Homo sapiens, UniProt O15379).
T1 construct: recombinant, full-length HDAC protein (HDAC1 100 pg/ul, HDAC2 200 pg/ul, HDAC3 100 pg/ul); purchased BPS Biosciences, San Diego, Calif., USA
The experiment is described as follows: HDAC enzyme assay, HDAC3 (fluorogenic, 384-well). The following applies: for IC50: recombinant full-length HDAC3, 3 hours incubation, substrate MAZ1600 at Km. On the procedure: (§1) The inhibitory effect of compounds on HDAC1-HDAC9 function was determined in vitro using an optimized homogenous assay performed in a 384-well plate format. […] Reactions were performed in assay buffer (50 mM HEPES, 100 mM KCl, 0.001% (v/v) Tween 20, 0.05% (w/v) bovine serum albumin, 200 μM TCEP, pH 7.4) and followed for fluorogenic release of 7-amino-4-methylcoumarin from substrate upon deacetylase and trypsin enzymatic activity. Trypsin was present at a final concentration of 50 nM (Worthington Biochemical Corporation). Fluorescence measurements were obtained approximately every 5 min using a multilabel plate reader and plate stacker (Envision, Perkin-Elmer). Data were analyzed on a plate-by-plate basis for the linear range of fluorescence overtime. The first derivative of data obtained from the plate capture corresponding to the mid-linear range was imported into analytical software (Spotfire DecisionSite and GraphPad Prism). Replicate experimental data from incubations with inhibitor were normalized to DMSO controls. IC50 is determined by logistic regression with unconstrained maximum and minimum values.

For experiment [2], the target named is T2, HDAC2 (Homo sapiens, UniProt Q92769).
T2 construct: recombinant, full-length HDAC protein (HDAC1 100 pg/ul, HDAC2 200 pg/ul); purchased BPS Biosciences, San Diego, Calif., USA
The experiment is described as follows: HDAC enzyme assay, HDAC2 (fluorogenic, 384-well). The note with it: read-out: IC50 HDAC2 (Tables 4-23, isoform selectivity panel). On the procedure:
as §1

The target of experiment [3] is T3, HDAC1 (Homo sapiens, UniProt Q13547).
T3 construct: recombinant, full-length HDAC protein (HDAC1 100 pg/ul); purchased BPS Biosciences, San Diego, Calif., USA
The experiment is described as follows: HDAC enzyme assay, HDAC1 (fluorogenic, 384-well). The following applies: read-out: IC50 HDAC1 (Tables 4-23, isoform selectivity panel). On the procedure:
as §1

The mark [4] stands for this setting: FIGS. 4A-4D, read-out: IC50 HDAC3 (Tables 4-23, isoform selectivity panel).
Where [5] appears, read: read-out: IC50 against HDAC3 (Table 3, data of FIG. 2).

Read-outs that look alike come from different tables or passages of the source.

T1 sequence (O15379 whole entry): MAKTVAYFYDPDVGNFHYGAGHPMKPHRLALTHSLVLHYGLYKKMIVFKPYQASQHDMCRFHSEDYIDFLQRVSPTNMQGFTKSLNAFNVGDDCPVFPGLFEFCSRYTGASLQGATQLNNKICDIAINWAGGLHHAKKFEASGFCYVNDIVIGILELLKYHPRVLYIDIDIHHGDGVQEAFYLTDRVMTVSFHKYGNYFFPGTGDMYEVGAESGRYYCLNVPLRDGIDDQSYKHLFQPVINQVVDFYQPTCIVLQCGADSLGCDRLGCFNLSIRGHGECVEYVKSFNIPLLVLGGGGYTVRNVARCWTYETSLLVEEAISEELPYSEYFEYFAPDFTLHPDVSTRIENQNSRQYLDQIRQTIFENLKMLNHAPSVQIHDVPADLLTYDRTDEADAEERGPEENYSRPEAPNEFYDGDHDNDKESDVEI
T1 sequence (Q9Y618 395-489 partner limits assumed): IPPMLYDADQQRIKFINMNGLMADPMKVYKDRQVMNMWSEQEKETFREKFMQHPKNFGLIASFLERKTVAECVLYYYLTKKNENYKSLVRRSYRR
T3 sequence (Q13547 whole entry): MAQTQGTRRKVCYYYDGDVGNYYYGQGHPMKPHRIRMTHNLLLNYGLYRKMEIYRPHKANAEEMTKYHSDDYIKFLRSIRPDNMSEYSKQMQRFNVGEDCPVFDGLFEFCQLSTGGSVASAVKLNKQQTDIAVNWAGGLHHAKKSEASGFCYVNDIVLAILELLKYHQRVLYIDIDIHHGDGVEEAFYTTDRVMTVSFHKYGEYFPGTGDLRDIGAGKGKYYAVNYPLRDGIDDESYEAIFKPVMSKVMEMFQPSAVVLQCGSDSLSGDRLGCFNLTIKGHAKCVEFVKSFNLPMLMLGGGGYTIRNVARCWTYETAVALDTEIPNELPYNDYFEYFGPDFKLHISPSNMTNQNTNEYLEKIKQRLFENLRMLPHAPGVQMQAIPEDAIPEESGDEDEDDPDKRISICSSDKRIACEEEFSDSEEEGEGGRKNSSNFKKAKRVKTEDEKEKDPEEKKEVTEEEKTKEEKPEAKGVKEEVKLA
T2 sequence (Q92769 whole entry): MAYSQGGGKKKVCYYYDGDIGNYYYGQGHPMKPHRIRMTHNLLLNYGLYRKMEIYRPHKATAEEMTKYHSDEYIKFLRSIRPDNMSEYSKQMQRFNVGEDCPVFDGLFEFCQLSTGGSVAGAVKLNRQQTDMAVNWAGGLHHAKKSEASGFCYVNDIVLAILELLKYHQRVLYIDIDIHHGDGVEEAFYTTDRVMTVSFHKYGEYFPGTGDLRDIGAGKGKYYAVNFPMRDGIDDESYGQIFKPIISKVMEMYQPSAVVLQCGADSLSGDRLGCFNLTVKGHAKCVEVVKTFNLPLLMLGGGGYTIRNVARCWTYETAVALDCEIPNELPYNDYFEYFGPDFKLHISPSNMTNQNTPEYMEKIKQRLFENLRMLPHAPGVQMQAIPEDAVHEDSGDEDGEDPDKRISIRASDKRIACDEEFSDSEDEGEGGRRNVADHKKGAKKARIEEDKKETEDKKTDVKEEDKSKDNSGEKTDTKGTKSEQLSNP

For `Nc1cc(F)ccc1NC(=O)c1ccc(C(=O)Nc2cccc3cnccc23)cc1` (racemic) [DL-HDAC9], the IC50 (usually the midpoint of a concentration-inhibition curve) is 550 nM in experiment [1] (setting [4]), 630 nM in experiment [1] (setting [5]), 930 nM in experiment [2] and 1550 nM in experiment [3].

For `Nc1cc(F)ccc1NC(=O)c1ccc(C(=O)Nc2ccc(N3CCOCC3)cc2)cc1` (racemic) [DL-HDAC5], the IC50 in experiment [1] (setting [4]) is 280 nM; in experiment [1] (setting [5]) it was 260 nM; in experiment [2], 440 nM; in experiment [3], 810 nM.

In the case of `Nc1cc(F)ccc1NC(=O)c1ccc(C(=O)NCCCn2ccnc2)cc1` (racemic) [DL-HDAC19], the IC50 in experiment [1] (setting [4]) was found to be 290 nM; in experiment [1] (setting [5]), 270 nM; in experiment [2] it was 610 nM; in experiment [3] it was 2790 nM.

As for `Nc1cc(F)ccc1NC(=O)c1ccc(C(=O)Nc2cccc3ncccc23)cc1` (racemic) [DL-HDAC1], the IC50 in experiment [1] (setting [4]) is 11100 nM; in experiment [1] (setting [5]), 10500 nM.

Take `Nc1cc(F)ccc1NC(=O)c1ccc(C(=O)Nc2cccc3[nH]ccc23)cc1` (racemic) [DL-HDAC3]: the IC50 was 230 nM in experiment [1] (setting [4]), 230 nM in experiment [1] (setting [5]), 490 nM in experiment [2] and 1050 nM in experiment [3].

With `Nc1cc(F)ccc1NC(=O)c1ccc(C(=O)NCc2ccc(Br)cc2)cc1` (racemic) [DL-HDAC13], the IC50 in experiment [1] (setting [4]) was determined as 120 nM; in experiment [1] (setting [5]), 120 nM; in experiment [2], 94 nM; in experiment [3], 200 nM.

In the case of `Nc1cc(F)ccc1NC(=O)c1ccc(C(=O)NCCc2cccnc2)cc1` (racemic) [DL-HDAC20], the IC50 came to 330 nM in experiment [1] (setting [4]), 290 nM in experiment [1] (setting [5]), 590 nM in experiment [2] and 1730 nM in experiment [3].

With `Nc1cc(F)ccc1NC(=O)c1ccc(C(=O)NC2CCNCC2)cc1` (racemic) [DL-HDAC18], the IC50 in experiment [1] (setting [4]) came to 560 nM; in experiment [1] (setting [5]) it was 530 nM; in experiment [2], 880 nM; in experiment [3], 3490 nM.

`Nc1cc(F)ccc1NC(=O)c1ccc(C(=O)Nc2ccc(Cl)c(C(F)(F)F)c2)cc1` (racemic) [DL-HDAC2]: the 50% inhibitory concentration (IC50) in experiment [1] (setting [4]) and in experiment [1] (setting [5]) was 1330 nM in each case.

As for `Cc1cc(NC(=O)c2ccc(C(=O)Nc3ccc(F)cc3N)cc2)n[nH]1` (racemic) [DL-HDAC10], the IC50 in experiment [1] (setting [4]) was found to be 450 nM; in experiment [1] (setting [5]), 450 nM; in experiment [2], 850 nM; in experiment [3], 2070 nM.

`CC(=O)c1ccc(NC(=O)c2ccc(C(=O)Nc3ccc(F)cc3N)cc2)cc1` (racemic) [DL-HDAC17]: the IC50 in experiment [1] (setting [4]) was determined as 170 nM; in experiment [1] (setting [5]), 150 nM; in experiment [2], 220 nM; in experiment [3], 1220 nM.

As for `Nc1cc(F)ccc1NC(=O)c1ccc(C(=O)NCCCBr)cc1` (racemic) [DL-HDAC15], the IC50 in experiment [1] (setting [4]) came out at 730 nM; in experiment [1] (setting [5]), 710 nM; in experiment [2] it was 1800 nM; in experiment [3], 3920 nM.

For `Nc1cc(F)ccc1NC(=O)c1ccc(C(=O)Nc2cccc3sccc23)cc1` (racemic) [DL-HDAC4], the values for the IC50 in experiment [1] (setting [4]) and in experiment [1] (setting [5]) were 260 nM and 270 nM, respectively.

`Nc1cc(F)ccc1NC(=O)c1ccc(C(=O)Nc2ccccc2)cc1` (racemic) [DL-HDAC12]: the IC50 stood at 270 nM in experiment [1] (setting [4]), 270 nM in experiment [1] (setting [5]), 360 nM in experiment [2] and 600 nM in experiment [3].

`Nc1cc(F)ccc1NC(=O)c1ccc(C(=O)NCc2ccccn2)cc1` [LW3]: the “Selectivity for HDAC3 over other HDAC isoforms” value in experiment [1] (HDAC inhibition assays, FIGS. 1A, 1B, 2, 3) is “selectively inhibits HDAC3 over other HDAC isoforms”. In experiment [1] (setting [5]), the IC50 turned out to be 390 nM.

Consider `CC(NC(=O)c1ccc(C(=O)Nc2ccc(F)cc2N)cc1)c1ccccc1[N+](=O)[O-]` (racemic) [DL-HDAC8], for which the IC50 worked out at 420 nM in experiment [1] (setting [4]), 410 nM in experiment [1] (setting [5]), 660 nM in experiment [2] and 1650 nM in experiment [3].

As to `Nc1cc(F)ccc1NC(=O)c1ccc(C(=O)NCC(F)(F)F)cc1` (racemic) [DL-HDAC16], the IC50 in experiment [1] (setting [4]) was found to be 420 nM; in experiment [1] (setting [5]) it was 390 nM; in experiment [2], 990 nM; in experiment [3], 2620 nM.

For the compound `COc1cc(-c2ccccc2)ccc1NC(=O)c1ccc(C(=O)Nc2ccc(F)cc2N)cc1` (racemic) [DL-HDAC11], the IC50 in experiment [1] (setting [4]) was 8810 nM; in experiment [1] (setting [5]) it was 7770 nM; in experiment [2] it was 4690 nM; in experiment [3], 36000 nM.
